Measured values from patent US20250368651A1 (priority 2022, published 2025).
Like-named read-outs stand apart in the source and are kept apart here.

How the values were obtained:
DNA S21 […] = assay: FP binding assay, 18-nt DNA S21
Method: (§1) All synthetic DNA and RNA oligomers were purchased from Integrated DNA Technologies and reconstituted in nuclease-free water (Invitrogen #AM9932) at 1 mM. The concentration of the oligonucleotides at ˜0.1 mM was calibrated with the A260 value measured by a NanoDrop ND-1000 (Thermo, Waltham, MA, USA) and the predicted extinction coefficient (http://www.oligoevaluator.com) using Lamber-Beer's Law. The risdiplam analogues (1 mM in DMSO) were diluted in 2× assay buffer (40 mM HEPES, 200 mM NaCl for RNA; 40 mM HEPES, 200 mM NaCl, 1 mM MgCl2 for DNA) to make a 1 μM 2× working solution.
(§2) A 1:2 dilution series (8 points) of each oligonucleotide was prepared in 20-30 μL water to desired concentrations (i.e., 1-128 μM). […] For fluorescence polarization measurement, 20 μL of the above 1× working solution was transferred into a 384-well, black, F-bottom microplates (Greiner Bio-One) in duplicates or triplicates. The plate was equilibrated at room temperature for 5 min before being read using a microplate reader (SYNERGY H1, BioTek; Excitation/Emission=360/460 nm) at 25° C. […] The mixture was then transferred into a microplate (20 μL each well) in duplicates for fluorescence polarization readout. The experimental data were analyzed using Prism 8 software (Graphpad Software, San Diego, CA, USA).

DNA S6 […] = assay: FP binding assay, 18-nt DNA S6
Method: as §1, §2

DNA S3 […] = assay: FP binding assay, 18-nt DNA S3
Method: as §1, §2

DNA S24 […] = assay: FP binding assay, 18-nt DNA S24
Method: as §1, §2

DNA S26 d(TGAAGGAAGG) = assay: FP binding assay, 10-nt DNA S26
Method: as §1, §2

SMN2 exon 7 splicing = assay: Cell-based SMN2 splicing assay in 293T cells (minigene); parameters: species or system human; conditions: Homo sapiens, HEK-293T
DNA S12 […] = assay: FP binding assay, 18-nt DNA S12
Method: as §1, §2

DNA S23 […] = assay: FP binding assay, 18-nt DNA S23
Method: as §1, §2

RNA Seq6 UGAAGGAAGGU = assay: Fluorescence polarization (FP) binding assay, RNA Seq6
Method: as §1
(§3) A 1:2 dilution series (8 points) of each oligonucleotide was prepared in 20-30 μL water to desired concentrations (i.e., 1-128 μM). 20-30 μL 2× working solution containing the 2× assay buffer and the small-molecule ligand was added to each oligonucleotide sample in 1:1 (v/v) and mixed by pipetting for 4 times. For fluorescence polarization measurement, 20 μL of the above 1× working solution was transferred into a 384-well, black, F-bottom microplates (Greiner Bio-One) in duplicates or triplicates. The plate was equilibrated at room temperature for 5 min before being read using a microplate reader (SYNERGY H1, BioTek; Excitation/Emission=360/460 nm) at 25° C. For compound SMN-C5, a competitive binding assay was employed to measure an apparent Kd. SMN-C5 was 1:2 serial diluted for 10 concentration points starting at 750 μM in DMSO. A mixture of SMN-C2 (0.5 μM) and DNA Seq6 (25 μM) in 1× assay buffer was prepared and incubated at room temperature for 10 minutes. 3 μL of SMN-C5 solution at each concentration was added to a 42 μL SMN-C2/DNA Seq6 mixture and incubated at room temperature for 10 minutes. The mixture was then transferred into a microplate (20 μL each well) in duplicates for fluorescence polarization readout. The experimental data were analyzed using Prism 8 software (Graphpad Software, San Diego, CA, USA).

DNA S16 […] = assay: FP binding assay, 18-nt DNA S16
Method: as §1, §2

DNA S2 […] = assay: FP binding assay, 18-nt DNA S2
Method: as §1, §2

RNA Seq4 […] = assay: FP binding assay, RNA Seq4
Method: as §1, §3

RNA Seq7 UUAAGGAAGGU = assay: FP binding assay, RNA Seq7; conditions: Seq 7 UUAAGGAAGGU; 0.5 μM SMN-C2
Method: as §1, §2

DNA S5 […] = assay: FP binding assay, 18-nt DNA S5
Method: as §1, §2

[1] = target: DNA Seq8 (UGAAGGAAGUU as deoxyribonucleotides); assay: FP binding assay, DNA Seq8; conditions: Seq 8; 0.5 μM SMN-C2
Method: as §1, §2

DNA S15 […] = assay: FP binding assay, 18-nt DNA S15
Method: as §1, §2

[2] = target: DNA Seq10 (UAAAGGAAGGU as deoxyribonucleotides); assay: FP binding assay, DNA Seq10; conditions: Seq 10; 0.5 μM SMN-C2
Method: as §1, §2

DNA Seq12 TGAAAGAAGGT = assay: FP binding assay, DNA Seq12; conditions: Seq 12 TGAAAGAAGGT; 0.5 μM SMN-C2
Method: as §1, §2

DNA S22 […] = assay: FP binding assay, 18-nt DNA S22
Method: as §1, §2

DNA Seq15 TGAAGGATGGT = assay: FP binding assay, DNA Seq15; conditions: Seq 15 TGAAGGATGGT; 0.5 μM SMN-C2
Method: as §1, §2

DNA Seq6 = assay: Isothermal titration calorimetry (ITC), DNA Seq6; format: binding; conditions: SMN-C2 250 μM into DNA Seq6 25 μM; MES buffer, 5% DMSO, 100 mM NaCl
Method: Excess amount of SMN-C2 was eluted at retention volume ˜21 mL. The figures are the representation of three independent experiments.
Isothermal calorimetric titrations were carried out on a Malvern Analytical MicroCal PEAQ-ITC at 25° C. The DNA (see above for the calibration procedure) and the SMN-C2 water solutions containing the desired amount of the materials were freeze-dried overnight (Labconco FreeZone 4.5 Liter Benchtop Freeze Dry System) and then re-suspended in appropriate volume of buffer containing 5% DMSO, 100 mM NaCl and 30 mM MES buffer at pH 6.0 (e.g., 350 μL for DNA Seq6, 80 μL for SMN-C2). […] The analysis was performed using the instrument's MicroCal PEAQ-ITC Analysis Software (Malvern Analytical). The ITC data was fit using the One Set of Sites mode to calculate the dissociate constant (Kd), binding stoichiometry, and the changes in enthalpy and Gibbs free energy. In differential power (DP) trace, the baseline was subtracted for better visualization, which has no impact on calculations.

DNA S25 […] = assay: FP binding assay, 18-nt DNA S25
Method: as §1, §2

For `CCN1CCN(c2ccc3cc(-c4cn5cc(C)nc(C)c5n4)c(=O)oc3c2)C[C@@H]1C` [SMN-C2, (S)-3-(6,8-dimethylimidazo[1,2-a]pyrazin-2-yl)-7-(4-ethyl-3-methylpiperazin-1-yl)-2H-chromen-2-one], the Kd (DNA S21 […]) was over 50 µM, the Kd (DNA S6 […]) was 33.3 ± 2.3 µM and the Kd (DNA S3 […]) was 21.7 ± 2.7 µM. The Kd (DNA S24 […]) was 36.8 ± 11.4 µM, the Kd (DNA S26 d(TGAAGGAAGG)) was 6.2 ± 1 µM and the EC50 (SMN2 exon 7 splicing; Table 3, read-out: SMN2 Splicing EC50) was 0.0635 ± 0.0296 µM. The EC50 (SMN2 exon 7 splicing; cell-based SMN2 splicing assay in 293T cells, read-out: SMN2 EC50) was 0.26 ± 0.13 µM, the Kd (DNA S12 […]) was 37.4 ± 6.7 µM and the Kd (DNA S23 […]) was over 50 µM. The Kd (RNA Seq6 UGAAGGAAGGU; Seq 6 UGAAGGAAGGU, 0.5 μM SMN-C2, range = 95% CI, read-out: RNA Kd) was 17.5 ± 2.2 µM, the “binding affinity (Kd) to RNA Seq6 relative to RNA Seq18, fold stronger” value (RNA Seq6 UGAAGGAAGGU; binding site 2 vs binding site 1) was 3.4 fold and the Kd (DNA S16 […]) was 48.9 ± 12.2 µM. The Kd (DNA S2 […]) was 20.2 ± 1.7 µM, the Kd (RNA Seq4 […]) was 21.7 ± 4.3 µM and the Kd (RNA Seq7 UUAAGGAAGGU) was 42.3 ± 13.3 µM. It also gave a Kd (DNA S5 […]) of 42.3 ± 4.2 µM, a Kd [1] of 14.7 ± 0.7 µM and a Kd (DNA S15 […]) of 31.4 ± 4 µM. The Kd [2] was over 100 µM, the Kd (DNA Seq12 TGAAAGAAGGT) was 17.6 ± 3.4 µM and the Kd (DNA S22 […]) was 44.7 ± 7.2 µM. For the same compound, the Kd (DNA Seq15 TGAAGGATGGT) was 41.1 ± 4.4 µM, the Kd (DNA Seq6) was 4.8 µM and the Kd (DNA S25 […]) was 48 ± 7.8 µM.
